According to ChEMBL document CHEMBL4665820, “Discovery of VU6027459: A First-in-Class Selective and CNS Penetrant mGlu Positive Allosteric Modulator Tool Compound” (ACS Med Chem Lett, 2020):
pIC50, pKi: −log10 of the molar value.

Tests used:
[1] = species: Rattus norvegicus; assay: Displacement of [3H]-Diltiazem from L-type calcium channel benzothiazepine binding site in rat brain at 10 uM incubated for 180 mins by scintillation counting analysis relative to control; format: tissue-based
[2] = target: Adenosine receptor A2a (Homo sapiens) (UniProt P29274); assay: Displacement of [3H]-CGS 21680 from human recombinant adenosine A2A receptor at 10 uM after 120 mins by scintillation counting analysis relative to control
Sequence of Adenosine receptor A2a (Homo sapiens) (P29274 whole entry): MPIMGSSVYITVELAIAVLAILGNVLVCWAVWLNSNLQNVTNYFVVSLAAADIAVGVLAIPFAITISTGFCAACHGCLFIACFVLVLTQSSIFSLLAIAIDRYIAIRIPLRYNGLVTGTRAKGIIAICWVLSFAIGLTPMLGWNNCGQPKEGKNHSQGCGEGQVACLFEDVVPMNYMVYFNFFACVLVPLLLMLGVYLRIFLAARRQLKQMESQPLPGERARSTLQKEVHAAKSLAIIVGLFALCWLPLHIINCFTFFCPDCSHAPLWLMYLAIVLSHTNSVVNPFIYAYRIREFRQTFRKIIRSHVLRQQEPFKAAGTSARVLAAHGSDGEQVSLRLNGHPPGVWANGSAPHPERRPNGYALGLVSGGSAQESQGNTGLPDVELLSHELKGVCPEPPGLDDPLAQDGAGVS

[3] = target: Metabotropic glutamate receptor 7 (Rattus norvegicus) (UniProt P35400); assay: Positive allosteric modulation of rat mGlu7 expressed in HEK293 cells co- expressing GIRK assessed as potentiation of L-AP4-induced thallium flux incubated for 140 sec by FluoZin2-AM dye based fluorescence analysis relative to maximal induction of L-AP4; format: cell-based; settings: filed as positive allosteric modulator
[4] = target: Adenosine receptor A3 (Homo sapiens) (UniProt P0DMS8); assay: Displacement of [125I]AB-MECA from human recombinant adenosine A3 receptor at 10 uM after 120 mins by scintillation counting analysis relative to control
[5] = target: Alpha-2A adrenergic receptor (Homo sapiens) (UniProt P08913); assay: Displacement of [3H]-RX821002 from human recombinant adrenergic alpha 2A receptor at 10 uM incubated for 60 mins by scintillation counting analysis relative to control
Sequence of Alpha-2A adrenergic receptor (Homo sapiens) (P08913 whole entry): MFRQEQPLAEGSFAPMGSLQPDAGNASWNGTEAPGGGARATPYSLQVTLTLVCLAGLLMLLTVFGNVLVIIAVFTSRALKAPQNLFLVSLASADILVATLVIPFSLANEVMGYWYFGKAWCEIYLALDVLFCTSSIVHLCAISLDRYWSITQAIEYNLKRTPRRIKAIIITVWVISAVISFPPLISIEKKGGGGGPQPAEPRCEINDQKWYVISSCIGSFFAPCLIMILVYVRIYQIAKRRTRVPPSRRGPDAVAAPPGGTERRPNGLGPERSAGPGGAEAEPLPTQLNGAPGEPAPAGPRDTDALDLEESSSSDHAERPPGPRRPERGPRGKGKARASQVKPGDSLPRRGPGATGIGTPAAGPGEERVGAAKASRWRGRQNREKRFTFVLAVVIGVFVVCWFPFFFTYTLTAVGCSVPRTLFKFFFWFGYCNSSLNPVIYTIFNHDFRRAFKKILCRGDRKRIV

[6] = target: Beta-1 adrenergic receptor (Homo sapiens) (UniProt P08588); assay: Displacement of [3H](-)CGP 12177 from human beta1 adrenoceptor at 10 uM after 60 mins by scintillation counting analysis relative to control
Sequence of Beta-1 adrenergic receptor (Homo sapiens) (P08588 whole entry, looked up): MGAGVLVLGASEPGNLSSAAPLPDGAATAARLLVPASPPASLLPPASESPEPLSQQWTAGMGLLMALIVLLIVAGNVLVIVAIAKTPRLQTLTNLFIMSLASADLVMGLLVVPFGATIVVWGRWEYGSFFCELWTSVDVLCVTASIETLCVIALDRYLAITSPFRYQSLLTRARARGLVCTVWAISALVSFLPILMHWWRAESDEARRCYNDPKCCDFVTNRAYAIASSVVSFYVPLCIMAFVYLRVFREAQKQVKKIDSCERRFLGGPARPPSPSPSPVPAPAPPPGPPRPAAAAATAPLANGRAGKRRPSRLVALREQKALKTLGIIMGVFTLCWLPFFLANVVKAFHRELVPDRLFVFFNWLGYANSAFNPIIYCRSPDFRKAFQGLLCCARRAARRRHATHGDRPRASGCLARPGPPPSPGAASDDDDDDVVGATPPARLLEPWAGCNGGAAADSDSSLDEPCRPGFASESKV

[7] = target: B1 bradykinin receptor (Homo sapiens) (UniProt P46663); assay: Displacement of [3H]desArg10-KD from human recombinant Bradykinin B1 receptor at 10 uM incubated for 120 mins by scintillation counting analysis relative to control
[8] = species: Rattus norvegicus; assay: Displacement of [125I]-Omega -conotoxin GIVA from N-type calcium channel in rat brain membrane at 10 uM incubated for 30 mins by scintillation counting analysis relative to control; format: cell membranes
[9] = target: Cannabinoid receptor 1 (Homo sapiens) (UniProt P21554); assay: Displacement of [3H]-SR141716A from human recombinant full length Cannabinoid CB1 receptor at 10 uM incubated for 60 mins by scintillation counting analysis relative to control
Sequence of Cannabinoid receptor 1 (Homo sapiens) (P21554 whole entry): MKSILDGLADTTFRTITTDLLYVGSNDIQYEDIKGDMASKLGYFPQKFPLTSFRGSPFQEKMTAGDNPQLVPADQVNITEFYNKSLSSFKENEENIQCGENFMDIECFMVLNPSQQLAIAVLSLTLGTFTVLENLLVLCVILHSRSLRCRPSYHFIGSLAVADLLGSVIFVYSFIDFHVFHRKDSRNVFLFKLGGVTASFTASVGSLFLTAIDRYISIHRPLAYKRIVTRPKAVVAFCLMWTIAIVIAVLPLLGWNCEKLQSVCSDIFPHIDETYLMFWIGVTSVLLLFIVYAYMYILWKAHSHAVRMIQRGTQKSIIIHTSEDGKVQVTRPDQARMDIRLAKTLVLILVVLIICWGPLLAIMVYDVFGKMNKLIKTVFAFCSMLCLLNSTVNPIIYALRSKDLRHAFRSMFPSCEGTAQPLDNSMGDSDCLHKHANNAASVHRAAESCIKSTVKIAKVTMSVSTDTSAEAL

[10] = target: D(1A) dopamine receptor (Homo sapiens) (UniProt P21728); assay: Displacement of [3H]-SCH 23390 from human recombinant dopamine D1 receptor at 10 uM by scintillation counting 60 mins analysis relative to control
Sequence of D(1A) dopamine receptor (Homo sapiens) (P21728 whole entry): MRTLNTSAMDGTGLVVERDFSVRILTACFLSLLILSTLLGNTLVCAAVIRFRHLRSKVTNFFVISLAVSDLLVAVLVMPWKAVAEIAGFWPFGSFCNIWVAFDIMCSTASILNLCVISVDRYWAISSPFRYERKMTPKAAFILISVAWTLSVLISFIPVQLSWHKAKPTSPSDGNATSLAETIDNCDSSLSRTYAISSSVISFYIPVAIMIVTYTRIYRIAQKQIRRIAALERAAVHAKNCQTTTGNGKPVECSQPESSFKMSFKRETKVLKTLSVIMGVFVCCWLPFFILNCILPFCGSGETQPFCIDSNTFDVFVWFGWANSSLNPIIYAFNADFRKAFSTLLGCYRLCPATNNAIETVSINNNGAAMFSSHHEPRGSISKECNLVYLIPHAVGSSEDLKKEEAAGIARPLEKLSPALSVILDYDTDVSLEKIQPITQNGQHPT

[11] = target: D(3) dopamine receptor (Homo sapiens) (UniProt P35462); assay: Displacement of [3H]-methyl-spiperone from human recombinant Dopamine D3 receptor at 10 uM incubated for 60 mins by scintillation counting analysis relative to control
[12] = test system: CHO-K1; assay: Inhibition of human recombinant full length Dopamine D4.2 receptor expressed in CHOK1 cells at 10 uM incubated for 30 mins by GTPgammaS assay relative to control; format: cell-based
[13] = target: Endothelin receptor type B (Homo sapiens) (UniProt P24530); assay: Displacement of [125I]-endothelin1 from human recombinant Endothelin ETB receptor cells at 10 uM incubated for 120 mins by scintillation counting analysis relative to control; format: cell-based
Sequence of Endothelin receptor type B (Homo sapiens) (P24530 whole entry): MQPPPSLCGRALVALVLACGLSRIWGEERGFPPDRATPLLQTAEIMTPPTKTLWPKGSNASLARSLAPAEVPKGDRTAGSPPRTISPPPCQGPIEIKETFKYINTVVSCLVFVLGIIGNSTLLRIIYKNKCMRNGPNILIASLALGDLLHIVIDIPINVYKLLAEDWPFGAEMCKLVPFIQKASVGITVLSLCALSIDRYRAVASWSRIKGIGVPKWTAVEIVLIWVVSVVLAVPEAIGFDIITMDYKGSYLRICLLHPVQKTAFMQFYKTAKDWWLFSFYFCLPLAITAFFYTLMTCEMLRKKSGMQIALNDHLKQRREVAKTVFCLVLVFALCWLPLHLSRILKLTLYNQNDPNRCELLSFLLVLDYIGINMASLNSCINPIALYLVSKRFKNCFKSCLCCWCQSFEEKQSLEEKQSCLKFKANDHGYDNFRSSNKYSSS

[14] = target: Epidermal growth factor receptor (Homo sapiens) (UniProt P00533); assay: Displacement of [125I]-EGF from human EGF receptor at 10 uM incubated for 60 mins by scintillation counting analysis relative to control
[15] = target: Estrogen receptor (Homo sapiens) (UniProt P03372); assay: Displacement of [3H]-estradiol from human recombinant Estrogen ERalpha receptor at 10 uM incubated for 120 mins by scintillation counting analysis relative to control
[16] = species: Rattus norvegicus; assay: Displacement of [3H]-Kainic acid from Glutamate ionotropic kainate receptor in rat at 10 uM incubated for 120 mins by scintillation counting analysis relative to control
[17] = species: Rattus norvegicus; assay: Displacement of [3H]-MDL105519 from NMDA glutamate receptor glycine binding site in rat at 10 uM incubated for 30 mins by scintillation counting analysis relative to control
[18] = target: Histamine H1 receptor (Homo sapiens) (UniProt P35367); assay: Displacement of [3H]pyrilamine from human recombinant histamine H1 receptor at 10 uM after 60 mins by scintillation counting analysis relative to control
[19] = target: Histamine H2 receptor (Homo sapiens) (UniProt P25021); assay: Displacement of [125I]APT from human recombinant histamine H2 receptor at 10 uM after 120 mins by scintillation counting analysis relative to control
Sequence of Histamine H2 receptor (Homo sapiens) (P25021 whole entry): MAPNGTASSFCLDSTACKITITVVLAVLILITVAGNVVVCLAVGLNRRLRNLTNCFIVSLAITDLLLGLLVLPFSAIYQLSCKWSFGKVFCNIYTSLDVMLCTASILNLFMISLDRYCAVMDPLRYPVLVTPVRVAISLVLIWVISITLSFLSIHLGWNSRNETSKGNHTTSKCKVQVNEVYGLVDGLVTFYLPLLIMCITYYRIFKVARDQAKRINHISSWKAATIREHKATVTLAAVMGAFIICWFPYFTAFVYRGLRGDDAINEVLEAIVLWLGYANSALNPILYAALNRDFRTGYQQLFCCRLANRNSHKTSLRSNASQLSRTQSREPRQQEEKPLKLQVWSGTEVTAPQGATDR

[20] = target: Histamine H3 receptor (Homo sapiens) (UniProt Q9Y5N1); assay: Displacement of [3H]-N-alpha-Methylhistamine from human recombinant Histamine H3 receptor at 10 uM incubated for 60 mins by scintillation counting analysis relative to control
Sequence of Histamine H3 receptor (Homo sapiens) (Q9Y5N1 whole entry): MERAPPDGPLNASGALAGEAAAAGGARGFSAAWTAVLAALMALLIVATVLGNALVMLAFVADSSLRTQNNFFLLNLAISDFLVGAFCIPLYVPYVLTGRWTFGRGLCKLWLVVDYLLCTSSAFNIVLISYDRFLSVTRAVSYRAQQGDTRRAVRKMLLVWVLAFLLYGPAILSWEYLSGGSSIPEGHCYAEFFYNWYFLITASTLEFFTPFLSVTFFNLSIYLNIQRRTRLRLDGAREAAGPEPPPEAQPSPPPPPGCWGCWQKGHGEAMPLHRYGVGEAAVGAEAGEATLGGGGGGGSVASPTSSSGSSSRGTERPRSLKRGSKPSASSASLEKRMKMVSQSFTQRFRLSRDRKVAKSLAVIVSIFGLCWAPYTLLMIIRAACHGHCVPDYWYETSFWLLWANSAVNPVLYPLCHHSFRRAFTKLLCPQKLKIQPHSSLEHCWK

[21] = species: Rattus norvegicus; assay: Displacement of [3H]-idazoxan from rat imidazoline I2 receptor at 10 uM incubated for 30 mins by scintillation counting analysis relative to control
[22] = target: Muscarinic acetylcholine receptor M1 (Homo sapiens) (UniProt P11229); assay: Displacement of [125I]pirenzepine from human recombinant M1 receptor at 10 uM after 60 mins by scintillation counting analysis relative to control
Sequence of Muscarinic acetylcholine receptor M1 (Homo sapiens) (P11229 whole entry): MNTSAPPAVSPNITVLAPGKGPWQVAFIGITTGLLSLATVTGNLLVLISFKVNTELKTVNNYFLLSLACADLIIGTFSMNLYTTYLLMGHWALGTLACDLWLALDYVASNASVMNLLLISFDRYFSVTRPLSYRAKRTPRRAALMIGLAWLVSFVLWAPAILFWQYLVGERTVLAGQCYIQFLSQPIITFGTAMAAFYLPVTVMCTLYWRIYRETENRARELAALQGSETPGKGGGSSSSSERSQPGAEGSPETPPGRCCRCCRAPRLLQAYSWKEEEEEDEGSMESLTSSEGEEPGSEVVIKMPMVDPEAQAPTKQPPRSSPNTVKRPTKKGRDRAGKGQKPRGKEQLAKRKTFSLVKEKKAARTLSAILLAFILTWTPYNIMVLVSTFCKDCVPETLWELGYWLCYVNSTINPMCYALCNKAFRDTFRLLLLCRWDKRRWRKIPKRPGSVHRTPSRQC

[23] = target: Neuropeptide Y receptor type 1 (Homo sapiens) (UniProt P25929); assay: Displacement of [125I]peptide YY from human Y1 receptor at 10 uM after 120 mins by scintillation counting analysis relative to control
Sequence of Neuropeptide Y receptor type 1 (Homo sapiens) (P25929 whole entry): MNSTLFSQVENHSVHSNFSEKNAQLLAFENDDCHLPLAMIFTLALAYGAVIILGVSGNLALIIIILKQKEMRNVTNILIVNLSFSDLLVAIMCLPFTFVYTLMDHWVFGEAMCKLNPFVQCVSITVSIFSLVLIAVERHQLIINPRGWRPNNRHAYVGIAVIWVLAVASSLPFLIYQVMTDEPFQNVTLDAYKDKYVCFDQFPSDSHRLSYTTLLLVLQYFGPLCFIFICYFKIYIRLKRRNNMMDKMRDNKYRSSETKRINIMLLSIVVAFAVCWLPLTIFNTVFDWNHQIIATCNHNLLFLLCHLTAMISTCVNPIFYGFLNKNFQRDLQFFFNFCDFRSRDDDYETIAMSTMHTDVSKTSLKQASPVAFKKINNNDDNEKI

[24] = target: Neuronal acetylcholine receptor; alpha3/beta4 (Homo sapiens) (UniProt P30926+P32297); assay: Displacement of [125I] epibatidine from human nicotinic acetylcholine receptor alpha3/beta4 at 10 uM incubated for 60 mins by scintillation counting analysis relative to control; format: protein-complex assay
[25] = target: Acetylcholine receptor subunit alpha (Homo sapiens) (UniProt P02708); assay: Displacement of [125I] alpha-Bungarotoxin from human nicotinic acetylcholine alpha 1 receptor at 10 uM incubated for 120 mins by radioligand binding assay relative to control
Sequence of Acetylcholine receptor subunit alpha (Homo sapiens) (P02708 whole entry): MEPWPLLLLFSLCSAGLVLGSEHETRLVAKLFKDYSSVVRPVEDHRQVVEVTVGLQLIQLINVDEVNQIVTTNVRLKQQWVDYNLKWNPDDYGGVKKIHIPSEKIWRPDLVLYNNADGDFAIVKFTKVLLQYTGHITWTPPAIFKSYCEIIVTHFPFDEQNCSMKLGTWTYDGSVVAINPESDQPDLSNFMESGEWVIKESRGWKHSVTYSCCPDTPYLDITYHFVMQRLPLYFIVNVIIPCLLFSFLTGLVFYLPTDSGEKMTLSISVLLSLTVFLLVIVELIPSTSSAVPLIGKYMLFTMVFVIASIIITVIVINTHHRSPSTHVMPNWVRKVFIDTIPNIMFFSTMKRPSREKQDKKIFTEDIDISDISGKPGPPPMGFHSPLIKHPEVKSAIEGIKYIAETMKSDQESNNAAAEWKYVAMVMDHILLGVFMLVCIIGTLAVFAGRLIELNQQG

[26] = target: Delta-type opioid receptor (Homo sapiens) (UniProt P41143); assay: Displacement of [3H]DADLE from human recombinant Delta opioid receptor at 10 uM after 60 mins by scintillation counting analysis relative to control
[27] = species: Mus musculus; assay: Displacement of [3H]-PDBu from mouse phorbol ester receptor at 10 uM incubated for 60 mins by scintillation counting analysis relative to control
[28] = test system: Cricetinae; assay: Displacement of [3H]-Glyburide from hamster potassium channel at 10 uM incubated for 120 mins by scintillation counting analysis relative to control
[29] = target: 5-hydroxytryptamine receptor 3A (Homo sapiens) (UniProt P46098); assay: Displacement of [3H]BRL 43694 from human recombinant 5-HT3 receptor at 10 uM after 120 mins by scintillation counting analysis relative to control
[30] = species: Rattus norvegicus; assay: Displacement of [125I]-Triiodothyronine from thyroid hormone receptors in rat at 10 uM incubated for 180 mins by scintillation counting analysis relative to control
[31] = target: Sodium-dependent dopamine transporter (Homo sapiens, UniProt Q01959); assay: Displacement of […] from recombinant human Dopamine transporter after 120 mins by scintillation counting analysis; format: ADME
[32] = Fraction unbound in rat plasma at 5 uM incubated for 4 hrs by equilibrium dialysis based LC-MS/MS analysis; format: ADME, cell-free

## COc1cccc2c(N3CCN(c4ccccc4F)CC3)c(C#N)cnc12
[1]
  inhibition: < 50%
[2]
  inhibition: < 50%
[3]
  Activity: 51.3%
[4]
  inhibition: < 50%
[5]
  inhibition: < 50%
[6]
  inhibition: < 50%
[7]
  inhibition: < 50%
[8]
  inhibition: < 50%
[9]
  inhibition: < 50%
[10]
  inhibition: < 50%
[11]
  inhibition: < 50%
[12]
  inhibition: < 50%
[13]
  inhibition: < 50%
[14]
  inhibition: < 50%
[15]
  inhibition: < 50%
[16]
  inhibition: < 50%
[17]
  inhibition: < 50%
[18]
  inhibition: < 50%
[19]
  inhibition: < 50%
[20]
  inhibition: < 50%
[21]
  inhibition: < 50%
[22]
  inhibition: < 50%
[23]
  inhibition: < 50%
[24]
  inhibition: < 50%
[25]
  inhibition: < 50%
[26]
  inhibition: < 50%
[27]
  inhibition: < 50%
[28]
  inhibition: < 50%
[29]
  inhibition: < 50%
[30]
  inhibition: < 50%
[31]
  pKi: 6.37
[32]
  fraction unbound at 4 h, 5 µM: 0.032

## COc1cc(F)cc2c(N3CCN(c4ccccc4F)CC3)c(C#N)cnc12
[1]; tested as the 2H-labelled form
  inhibition: < 50%
[2]; tested as the 2H-labelled form
  inhibition: < 50%
[3]; tested as the 2H-labelled form
  Activity: 62.8%
[4]; tested as the 2H-labelled form
  inhibition: < 50%
[5]; tested as the 2H-labelled form
  inhibition: < 50%
[6]; tested as the 2H-labelled form
  inhibition: < 50%
[7]; tested as the 2H-labelled form
  inhibition: < 50%
[8]; tested as the 2H-labelled form
  inhibition: < 50%
[9]; tested as the 2H-labelled form
  inhibition: < 50%
[10]; tested as the 2H-labelled form
  inhibition: < 50%
[11]; tested as the 2H-labelled form
  inhibition: < 50%
[12]; tested as the 2H-labelled form
  inhibition: < 50%
[13]; tested as the 2H-labelled form
  inhibition: < 50%
[14]; tested as the 2H-labelled form
  inhibition: < 50%
[15]; tested as the 2H-labelled form
  inhibition: < 50%
[16]; tested as the 2H-labelled form
  inhibition: < 50%
[17]; tested as the 2H-labelled form
  inhibition: < 50%
[18]; tested as the 2H-labelled form
  inhibition: < 50%
[19]; tested as the 2H-labelled form
  inhibition: < 50%
[20]; tested as the 2H-labelled form
  inhibition: < 50%
[21]; tested as the 2H-labelled form
  inhibition: < 50%
[22]; tested as the 2H-labelled form
  inhibition: < 50%
[23]; tested as the 2H-labelled form
  inhibition: < 50%
[24]; tested as the 2H-labelled form
  inhibition: < 50%
[25]; tested as the 2H-labelled form
  inhibition: < 50%
[26]; tested as the 2H-labelled form
  inhibition: < 50%
[27]; tested as the 2H-labelled form
  inhibition: < 50%
[28]; tested as the 2H-labelled form
  inhibition: < 50%
[29]; tested as the 2H-labelled form
  inhibition: < 50%
[30]; tested as the 2H-labelled form
  inhibition: < 50%
[31]
  pIC50: < 5.00
[32]
  fraction unbound at 4 h, 5 µM: 0.01
